Test results from US20260216170A1, “TETRAHYDROISOQUINOLINE HETEROBIFUNCTIONAL BCL-XL DEGRADERS” (Treeline Biosciences, Inc., priority 2023, published 2026).

Target: T1, Human BCL-XL protein (N-terminal HiBiT tagged BCL-XL expressed in HT1080 cells) (Homo sapiens, UniProt Q07817)
T1 construct: expressed in transfected cells; host or cells: HT-1080 (ATCC CCL-121), stably transduced with lentivirus pLV-UBC-N-HiBiT-BCL-XL-PGK-puro and selected with puromycin
Assay: HiBiT Based Degradation Assay
Type: cell-based
Conditions: 24 hours incubation; for DC50: BCL-XL degradation, HT1080 cells expressing N-HiBiT-BCL-XL, normalized with DMSO control, geometric mean for multiple data points, read-out: EC50 (24 h); for Ymin (24 h): bottom of BCL-XL degradation curve (remaining HiBiT-BCL-XL signal vs DMSO control), HT1080 cells
Method in brief: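 BCL-XL degradation was read as Nano-Glo HiBiT lytic luminescence relative to DMSO after a 24 h compound treatment of HT1080 cells carrying stably integrated N-HiBiT-BCL-XL. EC50 values come from four-parameter logistic curves, with the hook-curve minimum fixed as bottom, and are geometric means where tested repeatedly.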

T1 sequence (Q07817 whole entry): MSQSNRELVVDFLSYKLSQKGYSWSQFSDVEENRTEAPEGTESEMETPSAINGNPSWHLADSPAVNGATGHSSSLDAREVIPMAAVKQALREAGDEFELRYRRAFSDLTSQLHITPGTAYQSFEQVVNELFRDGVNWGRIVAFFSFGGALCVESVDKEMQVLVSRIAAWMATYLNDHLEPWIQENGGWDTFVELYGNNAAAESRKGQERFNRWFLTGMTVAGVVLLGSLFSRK

SMILES | DC50 | Ymin (24 h)
Cn1nc(C2CCC(=O)NC2=O)c2ccc(NC(=O)CN3CCC4(CC3)CC(Oc3cccc(-c5ccc(N6CCc7ccnc(C(=O)Nc8nc9ccccc9s8)c7C6)nc5C(=O)O)c3C(F)(F)F)C4)cc21 (stereo not shown) [Compound 154, 6-[8-(1,3-benzothiazol-2-ylcarbamoyl)-3,4-dihydro-1H-2,7-naphthyridin-2-yl]-3-[3-[[7-[2-[[3-(2,6-dioxo-3-piperidyl)-1-methyl-indazol-6-yl]amino]-2-oxo-ethyl]-7-azaspiro[3.5]nonan-2-yl]oxy]-2-(trifluoromethyl)phenyl]pyridine-2-carboxylic acid] | < 0.01 µM | B (30% ≤ Ymin < 50%)
Cc1cc(O[C@@H](C)CCC2CCN(CC(=O)Nc3ccc4c(C5CCC(=O)NC5=O)nn(C)c4c3)CC2)ccc1-c1ccc(N2CCc3ccnc(C(=O)Nc4nc5ccccc5s4)c3C2)nc1C(=O)O (single isomer, unassigned) [Compound 133b] | 0.01 to 0.1 µM | A (Ymin < 30%)
Cn1nc(C2CCC(=O)NC2=O)c2ccc(NC(=O)CN3CCC4(CC3)CC(Oc3ccc(-c5ccc(N6CCc7ccnc(C(=O)Nc8nc9ccccc9s8)c7C6)nc5C(=O)O)c(C(F)(F)F)c3)C4)cc21 (stereo not shown) [Compound 168, 6-[8-(1,3-benzothiazol-2-ylcarbamoyl)-3,4-dihydro-1H-2,7-naphthyridin-2-yl]-3-[4-[[7-[2-[[3-(2,6-dioxo-3-piperidyl)-1-methyl-indazol-6-yl]amino]-2-oxo-ethyl]-7-azaspiro[3.5]nonan-2-yl]oxy]-2-(trifluoromethyl)phenyl]pyridine-2-carboxylic acid] | < 0.01 µM | B (30% ≤ Ymin < 50%)
Cc1cc(OCCC[C@@H]2CCN(CC(=O)Nc3ccc4c(C5CCC(=O)NC5=O)nn(C)c4c3)[C@@H](C)C2)ccc1-c1ccc(N2CCc3ccnc(C(=O)Nc4nc5ccccc5s4)c3C2)nc1C(=O)O (stereo partly shown) [Compound 219a] | < 0.01 µM | A (Ymin < 30%)
COc1c(NC(=O)CN2CC[C@H](CCCOc3cccc(-c4ccc(N5CCc6cccc(C(=O)Nc7nc8ccccc8s7)c6C5)nc4C(=O)O)c3C)C[C@@H]2C)ccc2c(C3CCC(=O)NC3=O)nn(C)c12 (stereo partly shown) [Compound 208b] | 0.01 to 0.1 µM | B (30% ≤ Ymin < 50%)
Cc1cc(OCCC[C@H]2CCN(CC(=O)Nc3ccc4c(C5CCC(=O)NC5=O)nn(C)c4c3)[C@@H](C)C2)ccc1-c1ccc(N2CCc3ccnc(C(=O)Nc4nc5ccccc5s4)c3C2)nc1C(=O)O (stereo partly drawn) [Compound 219b, 6-(8-(benzo[d]thiazol-2-ylcarbamoyl)-3,4-dihydro-2,7-naphthyridin-2(1H)-yl)-3-(4-(3-((2S,4S)-1-(2-((3-(2,6-dioxopiperidin-3-yl)-1-methyl-1H-indazol-6-yl)amino)-2-oxoethyl)-2-methylpiperidin-4-yl)propoxy)-2-methylphenyl)picolinic acid] | < 0.01 µM | A (Ymin < 30%)
Cc1cc(OC[C@@H]2C[C@H]2C2CCN(CC(=O)Nc3ccc4c(C5CCC(=O)NC5=O)nn(C)c4c3)CC2)ccc1-c1ccc(N2CCc3cccc(C(=O)Nc4nc5ccccc5s4)c3C2)nc1C(=O)O (single isomer, unassigned) [Compound 1003b] | < 0.01 µM | B (30% ≤ Ymin < 50%)
Cn1nc(C2CCC(=O)NC2=O)c2ccc(NC(=O)CN3CCC(CCCOc4ccc(-c5ccc(N6CCc7cccc(C(=O)Nc8nc9ccccc9s8)c7C6)nc5C(=O)O)c(F)c4)CC3)cc21 (stereo not shown) [Compound 199] | < 0.01 µM | A (Ymin < 30%)
